Columns and labels:
AMPK = AMPK enzymatic activity (Delfia technology, AMARA peptide substrate); assay type: biochemical; conditions: AMP at 200 μM as reference
Description: The following biological test allows the determination of the efficacy of compounds of formula (I) onto AMPK protein.
AMPK enzyme activities were assayed by using a Delfia technology. AMPK enzyme activities were carried out in microtiter plates in the presence of a synthetic peptide substrate (AMARAASAAALARRR, the “AMARA” peptide) and activators in serial dilutions. Reactions were initiated by the addition of AMPK. Enzyme activity was assayed by using an anti-phosphoserine antibody to measure the quantity of phosphate incorporated into the AMARAA.
N°: Number of the molecule
Activity: Ratio between the % of control (basal activity) of compound of formula (1) at 30 μM and the % of control (basal activity) of AMP (natural substrate) at 200 μM.

Ob/ob mice = test: In vivo control of glycemia in ob/ob mice; conditions: oral BID during 8 days, 150 mg/kg, compared to an animal group control
Description: The following biological test allows the determination of the efficacy of compounds of formula (I) onto the control of glycemia on a pharmaceutical animal model.
All experiments on animals were carried out in accordance with the European animal care guidelines (ETS123).
Ob/ob mice from CERJ (53940 Le Genest Saint Isle, France) were treated orally with compounds of formula (1) BID during 8 days. At that time, a blood sample was collected and glucose concentration was determined using ABX diagnostic kit.
Results are given as a percentage of glycemia variation compared to an animal group control.

ob/ob and db/db mice = conditions: 8 day administration; cited from earlier work

Compound | Activity: Ratio between the % of control (basal activity) of compound at 30 μM and the % of control (basal activity) of AMP at 200 μM (AMPK) | % glycemia variation (Ob/ob mice) [%] | reduces blood glucose (ob/ob and db/db mice) [%]
O=c1[nH]c2sc(Cl)c(-c3ccc4c(c3[O-])CCCC4)c2c([O-])c1-c1ccccc1.[Na+].[Na+] [Compound 19, disodium 2-chloro-3-(5-oxidotetralin-6-yl)-6-oxo-5-phenyl-7H-thieno[2,3-b]pyridin-4-olate] | C (C>130%) | −41 | 
COc1cccc(-c2c(O)c3c(-c4ccc5c(c4)CCC5)c(Cl)sc3[nH]c2=O)c1 [Compound 5, 2-chloro-4-hydroxy-3-indan-5-yl-5-(3-methoxyphenyl)-7H-thieno[2,3-b]pyridin-6-one] | C (C>130%) |  | 
Cc1cccc(-c2c(O)c3c(-c4ccc5c(c4O)CCCC5)c(Cl)sc3[nH]c2=O)c1 [Compound 20, 2-chloro-4-hydroxy-3-(5-hydroxytetralin-6-yl)-5-(m-tolyl)-7H-thieno[2,3-b]pyridin-6-one] | C (C>130%) |  | 
O=c1[nH]c2sc(Cl)c(-c3ccc4c(c3O)CCCC4)c2c(O)c1-c1ccc(F)cc1 [Compound 18, 2-chloro-5-(4-fluorophenyl)-4-hydroxy-3-(5-hydroxytetralin-6-yl)-7H-thieno[2,3-b]pyridin-6-one] | B (110%<B<130%) |  | 
O=c1[nH]c2sc(Cl)c(-c3ccc4c(c3O)CCCC4)c2c(O)c1-c1ccccc1 [Compound 12, 2-chloro-4-hydroxy-3-(5-hydroxytetralin-6-yl)-5-phenyl-7H-thieno[2,3-b]pyridin-6-one] | C (C>130%) | −27 | 
O=c1[nH]c2sc(Cl)c(-c3ccc4c(c3O)CCC4)c2c(O)c1-c1ccc(F)cc1 [Compound 8, 2-chloro-5-(4-fluorophenyl)-4-hydroxy-3-(4-hydroxyindan-5-yl)-7H-thieno[2,3-b]pyridin-6-one] | C (C>130%) |  | 
O=c1[nH]c2sc(Cl)c(-c3ccc4c(c3)CCCC4)c2c(O)c1-c1ccccc1 [Compound 17, 2-chloro-4-hydroxy-5-phenyl-3-tetralin-6-yl-7H-thieno [2,3-b]pyridin-6-one] | A (A<110%) |  | 
N#Cc1cccc(-c2c(O)c3c(-c4ccc5c(c4)CCCC5)c(Cl)sc3[nH]c2=O)c1 [Compound 15, 3-(2-chloro-4-hydroxy-6-oxo-3-tetralin-6-yl-7H-thieno[2,3-b]pyridin-5-yl)benzonitrile] | B (110%<B<130%) |  | 
O=c1[nH]c2sc(Cl)c(-c3ccc4c(c3)CCC4)c2c(O)c1-c1cccnc1 [Compound 10, 2-chloro-4-hydroxy-3-indan-5-yl-5-(3-pyridyl)-7H-thieno[2,3-b]pyridin-6-one] | A (A<110%) |  | 
NC(=O)c1ncn([C@@H]2O[C@H](CO)[C@@H](O)[C@H]2O)c1N [AICAR] |  |  | 35
[Na+].[Na+].[Na+].[O-]c1nc2sc(Cl)c(-c3ccc4c(c3[O-])CCCC4)c2c([O-])c1-c1ccccc1 [Compound 16, trisodium 2-chloro-3-(5-oxidotetralin-6-yl)-5-phenyl-thieno[2,3-b]pyridine-4,6-diolate] | B (110%<B<130%) |  | 
O=c1[nH]c2sc(Cl)c(-c3ccc4c(c3O)CCC4)c2c(O)c1-c1ccccc1 [Compound 2, 2-chloro-4-hydroxy-3-(4-hydroxyindan-5-yl)-5-phenyl-7H-thieno[2,3-b]pyridin-6-one] | B (110%<B<130%) |  | 
O=c1[nH]c2sc(Cl)c(-c3ccc4c(c3)CCCC4)c2c(O)c1-c1cccnc1 [Compound 13, 2-chloro-4-hydroxy-5-(3-pyridyl)-3-tetralin-6-yl-7H-thieno[2,3-b]pyridin-6-one] | C (C>130%) |  | 
N#Cc1cccc(-c2c(O)c3c(-c4ccc5c(c4)CCC5)c(Cl)sc3[nH]c2=O)c1 [Compound 6, 3-(2-chloro-4-hydroxy-3-indan-5-yl-6-oxo-7H-thieno[2,3-b]pyridin-5-yl)benzonitrile] | C (C>130%) |  | 
O=c1[nH]c2sc(Cl)c(-c3ccc4c(c3O)CCC4)c2c(O)c1-c1cccc(F)c1 [Compound 9, 2-chloro-5-(3-fluorophenyl)-4-hydroxy-3-(4-hydroxyindan-5-yl)-7H-thieno[2,3-b]pyridin-6-one] | C (C>130%) |  | 
Cc1cccc(-c2c(O)c3c(-c4ccc5c(c4)CCC5)c(Cl)sc3[nH]c2=O)c1 [Compound 7, 2-chloro-4-hydroxy-3-indan-5-yl-5-(m-tolyl)-7H-thieno[2,3-b]pyridin-6-one] | C (C>130%) |  | 
O=c1[nH]c2sc(Cl)c(-c3ccc4c(c3)CCC4)c2c(O)c1-c1ccccc1 [Compound 3, 2-chloro-4-hydroxy-3-indan-5-yl-5-phenyl-7H-thieno[2,3-b]pyridin-6-one] | B (110%<B<130%) |  | 
COc1ccc(-c2c(O)c3c(-c4ccc5c(c4)CCC5)c(Cl)sc3[nH]c2=O)cc1 [Compound 1, 2-chloro-4-hydroxy-3-indan-5-yl-5-(4-methoxyphenyl)-7H-thieno[2,3-b]pyridin-6-one] | C (C>130%) |  | 
Cc1ccc(-c2c(O)c3c(-c4ccc5c(c4O)CCCC5)c(Cl)sc3[nH]c2=O)cc1 [Compound 21, 2-chloro-4-hydroxy-3-(5-hydroxytetralin-6-yl)-5-(p-tolyl)-7H-thieno[2,3-b]pyridin-6-one] | C (C>130%) |  | 
O=c1[nH]c2sc(Cl)c(-c3ccc4c(c3)CCC4)c2c(O)c1-c1ccc(F)cc1 [Compound 4, 2-chloro-5-(4-fluorophenyl)-4-hydroxy-3-indan-5-yl-7H-thieno[2,3-b]pyridin-6-one] | B (110%<B<130%) |  | 
O=c1[nH]c2sc(Cl)c(-c3ccc4c(c3O)CCC4)c2c(O)c1-c1ccccc1F [Compound 11, 2-chloro-5-(2-fluorophenyl)-4-hydroxy-3-(4-hydroxyindan-5-yl)-7H-thieno[2,3-b]pyridin-6-one] | B (110%<B<130%) |  | 
